The text below walks through data of paper PMC10029980 (Journal of medicinal chemistry, 2022).

SMILES strings stand for the structures.

Data set [1] concerns the target human recombinant PAK1 (kinase domain) (Homo sapiens, UniProt Q13153). In words: Z'-LYTE FRET kinase assay, PAK1 inhibition. The format is biochemical. As to conditions: for PAK1 inhibitory activity and selectivity of NVS-PAK1-1 conjugates: tested for PAK1, PAK2 and PAK4 inhibition (Table S1).
Data set [2] addresses human recombinant PAK2 (full length) (Homo sapiens, UniProt Q13177). In words: Z'-LYTE FRET kinase assay, PAK2 inhibition. The format is biochemical.
Data set [3] has as its target T1, PAK1 (Homo sapiens, UniProt Q13153). As to the kind of experiment: PAK1 degradation by immunoblot in MCF7 and OVCAR3 cells. The format is cell-based. (In western blotting, separated proteins are transferred to a membrane and probed.)
Data set [4] addresses T1, PAK1. As to the kind of experiment: PAK1 degradation in Panc1 cells. The format is cell-based. The following applies: compared with BJG-05-014 and BJG-05-027, Figure S2.
Data set [5] addresses Nluc-PAK1 (Homo sapiens, UniProt Q13153+Q96SW2). As to the kind of experiment: Nluc-PAK1 luciferase quantitation of PAK1 expression. The format is cell-based.
In data set [6] the test system is MOLT4 cells proteome. As to the kind of experiment: Global multiplexed mass spectrometry proteomics in MOLT4 cells. The format is cell-based, human. As to conditions: 1 µM, 5 hr.
In data set [7] the test system is phosphorylation of MEK1 at S298 and of ERK. In words: MEK and ERK phosphorylation by immunoblot in OVCAR3 and MCF7 cells. The format is cell-based. The following applies: 10 nM, 24 hr.
The test system of data set [8] is MCF7 cells. As to the kind of experiment: MTT cell proliferation, MCF7. The format is cell-based. The following applies: for EC50: Homo sapiens, MCF7, 96 h, read-out: EC50 anti-proliferative, MCF7.
Data set [9] deals with OVCAR3 cells. As to the kind of experiment: MTT cell proliferation, OVCAR3. The format is cell-based. The following applies: for EC50: Homo sapiens, OVCAR-3, 96 h, read-out: EC50 anti-proliferative, OVCAR3.
The subject of data set [10] is OMM1 cells. As to the kind of experiment: MTT cell proliferation, OMM1. The format is cell-based. As to conditions: MTT assay, 96 hr, PAK2-dependent cells. (In general: Formazan colour is commonly taken as a measure of viable cells.)
Data set [11] relates to HEY-A8 cells. In words: MTT cell proliferation, HEY-A8. The format is cell-based. The following applies: MTT assay, 96 hr, PAK2-dependent cells.
The conditions of data set [12]: cited from earlier work.
The mark [13] stands for this setting: MCF7 and OVCAR3 cells, 24 hr treatment.

Chain of human recombinant PAK2 (full length) (Q13177 whole entry): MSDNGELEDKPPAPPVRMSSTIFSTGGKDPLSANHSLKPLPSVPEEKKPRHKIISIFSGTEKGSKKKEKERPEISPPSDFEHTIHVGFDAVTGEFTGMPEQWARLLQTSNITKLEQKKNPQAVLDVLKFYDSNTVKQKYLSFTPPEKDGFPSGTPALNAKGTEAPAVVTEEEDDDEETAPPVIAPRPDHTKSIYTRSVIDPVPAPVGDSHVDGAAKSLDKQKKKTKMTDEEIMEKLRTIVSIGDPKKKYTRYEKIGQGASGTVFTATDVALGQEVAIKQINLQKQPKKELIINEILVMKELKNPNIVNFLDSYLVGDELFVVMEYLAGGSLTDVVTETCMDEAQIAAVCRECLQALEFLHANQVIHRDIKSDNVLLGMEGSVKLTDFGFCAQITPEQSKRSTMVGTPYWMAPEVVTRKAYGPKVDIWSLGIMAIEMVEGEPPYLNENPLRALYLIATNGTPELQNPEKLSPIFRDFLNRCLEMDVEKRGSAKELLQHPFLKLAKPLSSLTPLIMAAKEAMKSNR
Chain of human recombinant PAK1 (kinase domain) (Q13153 270-521 limits assumed): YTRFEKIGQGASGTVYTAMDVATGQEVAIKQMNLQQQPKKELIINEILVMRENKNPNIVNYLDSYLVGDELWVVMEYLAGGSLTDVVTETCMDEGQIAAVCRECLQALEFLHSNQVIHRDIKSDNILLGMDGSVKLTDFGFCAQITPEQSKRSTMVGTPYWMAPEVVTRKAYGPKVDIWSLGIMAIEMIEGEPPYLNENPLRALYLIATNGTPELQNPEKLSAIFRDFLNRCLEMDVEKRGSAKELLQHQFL
T1 sequence (Q13153 whole entry): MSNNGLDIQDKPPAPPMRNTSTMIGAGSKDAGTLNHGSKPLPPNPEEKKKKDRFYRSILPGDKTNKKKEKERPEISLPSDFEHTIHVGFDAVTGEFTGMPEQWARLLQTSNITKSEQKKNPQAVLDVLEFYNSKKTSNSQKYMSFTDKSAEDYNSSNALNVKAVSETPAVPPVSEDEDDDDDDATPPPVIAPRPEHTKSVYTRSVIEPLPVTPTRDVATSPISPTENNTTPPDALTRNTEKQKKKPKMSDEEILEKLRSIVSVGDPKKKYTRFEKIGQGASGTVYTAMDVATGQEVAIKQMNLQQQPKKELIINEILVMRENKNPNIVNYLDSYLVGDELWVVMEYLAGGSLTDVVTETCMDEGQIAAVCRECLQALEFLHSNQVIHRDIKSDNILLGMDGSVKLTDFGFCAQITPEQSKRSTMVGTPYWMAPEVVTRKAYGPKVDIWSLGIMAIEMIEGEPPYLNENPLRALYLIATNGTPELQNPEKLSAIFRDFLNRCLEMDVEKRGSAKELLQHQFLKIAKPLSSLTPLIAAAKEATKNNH
Chain of Nluc-PAK1 (Q13153 whole entry): as above
Chain of Nluc-PAK1 (Q96SW2 whole entry): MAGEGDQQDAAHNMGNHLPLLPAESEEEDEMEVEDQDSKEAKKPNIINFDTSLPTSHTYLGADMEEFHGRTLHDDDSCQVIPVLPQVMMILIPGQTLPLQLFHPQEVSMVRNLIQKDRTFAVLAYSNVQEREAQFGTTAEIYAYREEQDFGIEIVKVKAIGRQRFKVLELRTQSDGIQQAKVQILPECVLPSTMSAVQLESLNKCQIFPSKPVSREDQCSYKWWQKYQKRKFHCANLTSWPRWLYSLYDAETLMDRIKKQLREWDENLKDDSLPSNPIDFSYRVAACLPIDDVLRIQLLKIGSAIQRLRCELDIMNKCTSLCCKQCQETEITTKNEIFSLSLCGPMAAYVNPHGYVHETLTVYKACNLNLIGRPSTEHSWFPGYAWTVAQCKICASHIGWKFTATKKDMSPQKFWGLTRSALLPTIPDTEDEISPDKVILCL
Chain of Nluc-PAK1 (Q16531 whole entry partner): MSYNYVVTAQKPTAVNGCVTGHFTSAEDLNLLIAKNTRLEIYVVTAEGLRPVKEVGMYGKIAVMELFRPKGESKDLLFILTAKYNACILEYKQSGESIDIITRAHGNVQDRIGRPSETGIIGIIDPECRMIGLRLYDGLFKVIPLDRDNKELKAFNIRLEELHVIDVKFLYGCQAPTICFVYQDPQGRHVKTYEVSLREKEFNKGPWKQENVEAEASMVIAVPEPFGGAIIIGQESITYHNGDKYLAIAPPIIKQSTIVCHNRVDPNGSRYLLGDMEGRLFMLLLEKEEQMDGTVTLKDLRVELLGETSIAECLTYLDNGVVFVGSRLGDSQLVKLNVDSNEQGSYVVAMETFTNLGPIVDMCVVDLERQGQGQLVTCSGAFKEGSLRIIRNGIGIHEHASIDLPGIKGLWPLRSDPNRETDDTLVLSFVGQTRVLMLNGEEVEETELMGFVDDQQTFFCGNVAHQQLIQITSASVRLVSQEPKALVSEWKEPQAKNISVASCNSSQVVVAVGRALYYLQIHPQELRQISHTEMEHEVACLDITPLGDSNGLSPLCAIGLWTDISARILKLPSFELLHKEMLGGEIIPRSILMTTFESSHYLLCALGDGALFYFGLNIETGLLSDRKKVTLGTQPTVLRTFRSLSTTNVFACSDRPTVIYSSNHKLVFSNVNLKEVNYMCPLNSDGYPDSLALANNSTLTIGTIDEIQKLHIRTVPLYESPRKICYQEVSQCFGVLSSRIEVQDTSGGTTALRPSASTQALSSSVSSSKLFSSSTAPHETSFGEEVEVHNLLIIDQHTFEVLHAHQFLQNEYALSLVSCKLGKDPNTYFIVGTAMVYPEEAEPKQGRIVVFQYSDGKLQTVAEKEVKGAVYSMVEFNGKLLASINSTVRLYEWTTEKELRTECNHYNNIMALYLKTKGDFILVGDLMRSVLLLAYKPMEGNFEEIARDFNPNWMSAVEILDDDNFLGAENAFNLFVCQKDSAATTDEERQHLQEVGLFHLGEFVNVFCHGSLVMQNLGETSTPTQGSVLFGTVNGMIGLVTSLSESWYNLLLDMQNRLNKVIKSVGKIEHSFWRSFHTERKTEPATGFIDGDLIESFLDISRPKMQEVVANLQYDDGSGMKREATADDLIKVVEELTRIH

On to `O=C1CCC(N2C(=O)c3cccc(NCCOCCOCCC(=O)N4CC[C@H](NC5=Nc6cc(F)ccc6N(CC(F)F)c6ccc(Cl)cc65)C4)c3C2=O)C(=O)N1` (stereo partly drawn) [BJG-05-014, 4-((2-(2-(3-((S)-3-((2-chloro-5-(2,2-difluoroethyl)-8-fluoro-5H-dibenzo[b,e][1,4]diazepin-11-yl)amino)pyrrolidin-1-yl)-3-oxopropoxy)ethoxy)ethyl)amino)-2-(2,6-dioxopiperidin-3-yl)isoindoline-1,3-dione], for which the “PAK1 inhibitory activity and selectivity of NVS-PAK1-1 conjugates” value in [1] was “retained PAK1 inhibitory activity and selectivity”.
Same read-out and setting: the result for `O=C1CCC(N2C(=O)c3cccc(NCCCCCNC(=O)N4CC[C@H](NC5=Nc6cc(F)ccc6N(CC(F)F)c6ccc(Cl)cc65)C4)c3C2=O)C(=O)N1` (stereo partly drawn) [BJG-05-027, (3S)-3-((2-chloro-5-(2,2-difluoroethyl)-8-fluoro-5H-dibenzo[b,e][1,4]diazepin-11-yl)amino)-N-(5-((2-(2,6-dioxopiperidin-3-yl)-1,3-dioxoisoindolin-4-yl)amino)pentyl)pyrrolidine-1-carboxamide] reads “retained PAK1 inhibitory activity and selectivity”.
By IC50 is commonly meant the concentration that gives 50% inhibition. Usually EC50 stands for the midpoint of the concentration-response curve. Regarding `O=C1CCC(N2C(=O)c3cccc(NCCCCCCCCNC(=O)N4CC[C@H](NC5=Nc6cc(F)ccc6N(CC(F)F)c6ccc(Cl)cc65)C4)c3C2=O)C(=O)N1` (stereo partly drawn) [BJG-05-039, (3S)-3-((2-chloro-5-(2,2-difluoroethyl)-8-fluoro-5H-dibenzo[b,e][1,4]diazepin-11-yl)amino)-N-(8-((2-(2,6-dioxopiperidin-3-yl)-1,3-dioxoisoindolin-4-yl)amino)octyl)pyrrolidine-1-carboxamide], the “PAK1 inhibitory activity and selectivity of NVS-PAK1-1 conjugates” value in [1] is “retained PAK1 inhibitory activity and selectivity”. The IC50 in data set [2] is above 10000 nM. Besides, the “increase of selectivity over PAK2 relative to NVS-PAK-1” value in data set [2] (Table S1) is given as “more than ten-fold”. Further, the “reduction in PAK1 levels by immunoblot” value in [3] (Figure 2A) is ~ 50%. In data set [3] (setting [13]), the “concentration at which diminished PAK1 degradation (hook effect) was observed” value was at least 1 µM and the “concentration of maximal PAK1 degradation” value is 10 nM. In data set [3] (MCF7 and OVCAR3 cells, 24 hr treatment, immunoblot), the PAK1 degradation result is recorded as “induced degradation of PAK1”. Besides, the “time to partial degradation of PAK1” value in data set [3] (MCF7 cells, 10 nM) was at most 4 h. Moreover, the “PAK1 degradation on co-treatment with bortezomib (proteasome inhibitor)” value in data set [3] (co-treatment with bortezomib) is “prevented PAK1 destabilization”. Also, in data set [4], the “PAK1 degradation profile in Panc1 cells” value is listed as “most promising profile”. Further, the “maximal loss of the PAK1 protein achieved” value in data set [5] was at most 70%. The “reduction in PAK1 expression” value in [5] (10 nM, Nluc-PAK1 cells, 24 hr) is “approximately 70%”. Besides, in [6], the “downregulation of PAK1 in proteomic analysis” value was “significant downregulation of this kinase was not apparent”; the “downregulation of RNF166, Ikaros (IKZF1) and Aiolos (IKZF3)” value is recorded as “strongly downregulated”. For the same compound, in [7], the “phosphorylation of ERK” value is given as “inhibiting phosphorylation of ERK” and the “phosphorylation of MEK S298” value is listed as “inhibited phosphorylation of MEK S298”. The EC50 in data set [8] is 86 nM. The EC50 in [9] stood at 100 nM. The “anti-proliferative activity, OMM1” value in data set [10] is recorded as “did not show increased efficacy relative to NVS-PAK1-1”. In addition, the “anti-proliferative activity, HEY-A8” value in data set [11] was “did not show increased efficacy relative to NVS-PAK1-1”.
With `Cc1ccc(CO)cc1N(Cc1ccccc1C#N)c1nc(Nc2ccc(N3CCN(CCOCCOCCNc4cccc5c4C(=O)N(C4CCC(=O)NC4=O)C5=O)CC3)c(S(C)(=O)=O)c2)ncc1F` (centres unmarked) [BJG-05-093, 2-(((2-((4-(4-(2-(2-(2-((2-(2,6-dioxopiperidin-3-yl)-1,3-dioxoisoindolin-4-yl)amino)ethoxy)ethoxy)ethyl)piperazin-1-yl)-3-(methylsulfonyl)phenyl)amino)-5-fluoropyrimidin-4-yl)(5-(hydroxymethyl)-2-methylphenyl)amino)methyl)benzonitrile], the “inhibitor activity of linker conjugates of an ATP-competitive PAK1 inhibitor” value in [1] (Table S1) was “retained inhibitor activity”.
In the case of `CC(C)NC(=O)N1CC[C@H](NC2=Nc3cc(F)ccc3N(CC(F)F)c3ccc(Cl)cc32)C1` [NVS-PAK1-1], in [2], the IC50 was found to be 824 nM. Further, the “phosphorylation of ERK” value in data set [7] is given as “no visible impact”. Besides, the “phosphorylation of MEK S298” value in data set [7] was “no visible impact”. Besides, the “effect of combination with PAK shRNA on MCF7 cells” value in data set [8] (100 nM, MCF7 cells with PAK shRNA) is given as “lethal”. Moreover, the EC50 in data set [8] came out at 11800 nM; in [9], 8900 nM. Further, the in vivo half-life result in data set [12] is recorded as “short in vivo half-life”.
Regarding `Nc1cccc2c1CN(C1CCC(=O)NC1=O)C2=O` (centres unmarked) [lenalidomide], the “anti-proliferative activity, MCF7” value in data set [8] (MTT assay, 96 hr) was “lacked significant antiproliferative effects”. The “anti-proliferative activity, OVCAR3” value in data set [9] (MTT assay, 96 hr) is recorded as “lacked significant antiproliferative effects”.
